Assay results from US12351571B2, “Substituted quinoxaline compounds as inhibitors of FGFR tyrosine kinases” (ARRAY BIOPHARMA INC., priority 2018, dated 2025).

Columns and labels:
FGFR3 = FGFR3 (Homo sapiens (Human), UniProt P22607); test: LC/MS FGFR3 kobs assay (covalent modification); assay type: biochemical; conditions: 500 nM FGFR3, 3 μM compound
Protocol: The LC/MS FGFR1 and FGFR3 kobs assays were conducted as follows. 500 nM FGFR1 (Array BioPharma construct p1702; SEQ ID NO: 1, amino acids 458-765) or FGFR3 (Array BioPharma construct p1700; SEQ ID NO: 5, amino acids 449-759) were incubated with 3 μM compound in 25 mM HEPES (4-(2-hydroxyethyl)-1-piperazineethanesulfonic acid), pH 7.4, 5 mM MgCl2, 150 mM NaCl, 0.5 mM TCEP (tris(2-carboxyethyl) phosphine), and 2% DMSO in a total volume of 20 μL. At each time point, the reaction was quenched with 20 μL of 0.4% formic acid. The extent of protein modification by each compound was determined by LC/MS on an Agilent Technologies 6520 Q-TOF LC/MS. Protein signals were then automatically deconvoluted using Agilent Masshunter software. Deconvoluted mass signals were exported to Tibco Spotfire data analysis program for further processing and normalization.
Data analysis included five steps. First, the signals for the “DMSO Controls” were analyzed to determine the percent of signal associated with unmodified FGFR1 or FGFR3 at each time point. Next, the percent of the signal associated with the covalent modification was determined. Third, the average nonmodified “DMSO Control” signal was used to normalize the modified protein signals at each time point. The percent of unmodified protein was fit to an exponential decay model where A0 is the Percent Unmodified at the start of the reaction, and kobs is the observed rate constant over the time period.

human wild type FGFR1 = human wild type FGFR1 (Homo sapiens (Human), UniProt P11362); test: FGFR1 pERK Cell Assay; assay type: cell-based; conditions: HEK-293 cells, 1 hour compound, 100 ng/ml human FGF-acidic; maximum concentration 5 μM
Chain of human wild type FGFR1 (P11362 22-822): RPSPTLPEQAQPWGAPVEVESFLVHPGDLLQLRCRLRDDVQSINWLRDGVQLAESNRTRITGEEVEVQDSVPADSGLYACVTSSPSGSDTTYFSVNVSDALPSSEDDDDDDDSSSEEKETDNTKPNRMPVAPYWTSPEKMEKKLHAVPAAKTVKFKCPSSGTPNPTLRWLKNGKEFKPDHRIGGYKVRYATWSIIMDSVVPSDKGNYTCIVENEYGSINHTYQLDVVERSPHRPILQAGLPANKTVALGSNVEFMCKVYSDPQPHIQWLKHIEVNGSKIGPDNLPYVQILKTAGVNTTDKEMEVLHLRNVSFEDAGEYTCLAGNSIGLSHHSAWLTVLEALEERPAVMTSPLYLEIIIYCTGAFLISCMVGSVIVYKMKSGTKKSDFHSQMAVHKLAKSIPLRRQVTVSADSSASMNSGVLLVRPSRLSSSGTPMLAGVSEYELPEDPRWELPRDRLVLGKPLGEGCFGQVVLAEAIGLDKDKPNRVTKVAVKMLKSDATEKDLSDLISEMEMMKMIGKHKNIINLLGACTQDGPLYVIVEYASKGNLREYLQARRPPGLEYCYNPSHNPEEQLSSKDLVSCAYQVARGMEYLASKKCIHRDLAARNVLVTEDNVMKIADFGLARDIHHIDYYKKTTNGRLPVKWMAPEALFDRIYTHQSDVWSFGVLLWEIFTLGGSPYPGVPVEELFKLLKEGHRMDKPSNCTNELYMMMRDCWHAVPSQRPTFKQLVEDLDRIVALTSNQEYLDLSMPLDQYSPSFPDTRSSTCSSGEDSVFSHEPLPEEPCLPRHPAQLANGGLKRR
Protocol: (§1) HEK-293 cells transfected with doxycycline(dox)-inducible human wild type FGFR1 (SEQ ID NO: 1) were plated in a collagen or poly-D-lysine coated 96 well flat bottom plates at 4×10^5 cells/well in complete Dulbecco's Modified Eagle Medium (DMEM) containing 10% FBS and 1 μg/ml doxycycline and allowed to attach for 24 h at 37° C., 5% CO2. Cells were treated with compound using 1:3 serial dilutions with a maximum final concentration of 5 μM. Compound was incubated on cells for 1 hour at 37° C., 5% CO2. Cells were then stimulated with a final concentration of 100 ng/ml human FGF-acidic (R&D Systems Cat number 232-FA/CF) for 5 minutes at 37° C., 5% CO2. Medium was removed, and cells were lysed with lysis buffer containing phosphatase and protease inhibitors. Phospho ERK1/2 was measured using the Meso Scale Discovery sandwich assay (Meso Scale Discovery cat. no. K151DWD). The assay captures phospho ERK1/2 and detects with a sulfo-tagged total ERK1/2 antibody. The chemiluminescent signal was read on the Sector Imager Plate reader. 100 POC was determined using no test compound and 0 POC was determined using a control compound. The POC values were fit to a 4-parameter logistic curve as a function of the concentration of the compound, and the IC50 value is the point where the curve crosses 50 POC.

human wild type FGFR3 = human wild type FGFR3 (Homo sapiens (Human), UniProt P22607); test: FGFR3 pERK Cell Assay; assay type: cell-based; conditions: HEK-293 cells, 1 hour compound, 100 ng/ml human FGF-acidic; maximum concentration 5 μM
Chain of human wild type FGFR3 (P22607 23-806): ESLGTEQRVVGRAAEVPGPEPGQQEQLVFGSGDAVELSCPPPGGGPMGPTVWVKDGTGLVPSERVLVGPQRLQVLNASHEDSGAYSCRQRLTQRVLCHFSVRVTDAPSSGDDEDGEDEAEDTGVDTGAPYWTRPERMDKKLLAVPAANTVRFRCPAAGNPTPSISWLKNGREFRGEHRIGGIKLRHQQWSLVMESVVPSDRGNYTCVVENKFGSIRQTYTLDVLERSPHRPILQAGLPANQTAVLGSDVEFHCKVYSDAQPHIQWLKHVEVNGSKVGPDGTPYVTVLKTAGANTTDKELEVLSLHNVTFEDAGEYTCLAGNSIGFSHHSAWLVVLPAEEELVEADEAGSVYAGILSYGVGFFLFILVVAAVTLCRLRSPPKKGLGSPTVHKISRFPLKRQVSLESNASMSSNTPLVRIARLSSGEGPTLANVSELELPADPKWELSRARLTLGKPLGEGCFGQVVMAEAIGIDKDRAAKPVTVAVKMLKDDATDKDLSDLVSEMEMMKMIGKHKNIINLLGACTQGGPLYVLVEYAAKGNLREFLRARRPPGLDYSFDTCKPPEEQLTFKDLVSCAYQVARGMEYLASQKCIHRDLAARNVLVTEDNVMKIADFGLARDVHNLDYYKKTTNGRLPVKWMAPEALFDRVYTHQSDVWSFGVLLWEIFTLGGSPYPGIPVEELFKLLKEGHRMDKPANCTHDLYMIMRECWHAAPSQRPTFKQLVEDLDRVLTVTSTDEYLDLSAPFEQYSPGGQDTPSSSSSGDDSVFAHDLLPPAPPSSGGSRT
Protocol: as §1, with “with dox-inducible” for “with doxycycline(dox)-inducible”, “type FGFR3” for “type FGFR1”, “NO: 5)” for “NO: 1)”, “complete DMEM medium” for “complete Dulbecco's Modified Eagle Medium (DMEM)”, “test compounds” for “test compound”

[1] = target: recombinant human FGFR2 cytoplasmic domain (Homo sapiens (Human), UniProt P21802); test: FGFR Enzyme Activity Assay (LanthaScreen TR-FRET), FGFR2; assay type: biochemical; conditions: 15 μM ATP, 20 minute incubation; read-out: FGFR2 Enz FRET IC50
Chain of recombinant human FGFR2 cytoplasmic domain (P21802 402-821): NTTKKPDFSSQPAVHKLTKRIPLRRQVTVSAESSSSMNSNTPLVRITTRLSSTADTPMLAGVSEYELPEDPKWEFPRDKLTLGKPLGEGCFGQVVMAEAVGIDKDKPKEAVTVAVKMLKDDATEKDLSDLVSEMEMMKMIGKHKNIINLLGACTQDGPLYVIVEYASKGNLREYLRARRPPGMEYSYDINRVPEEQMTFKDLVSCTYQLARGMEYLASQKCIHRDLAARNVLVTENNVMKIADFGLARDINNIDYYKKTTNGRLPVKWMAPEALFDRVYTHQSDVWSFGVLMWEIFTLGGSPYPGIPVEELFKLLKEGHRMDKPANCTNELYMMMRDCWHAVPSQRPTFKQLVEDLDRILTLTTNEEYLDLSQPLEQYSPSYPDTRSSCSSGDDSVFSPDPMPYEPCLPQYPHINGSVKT
Protocol: FGFR2 kinase activity was measured by the Invitrogen LanthaScreen™ Assay technology which directly measures the amount of substrate phosphorylation by TR-FRET using a flourescently-labeled peptide and Europium-labeled antibody. Briefly, 200 pM His-tagged recombinant human FGFR2 cytoplasmic domain (amino acids 403-822) (Life Technologies Cat. No. PR5332A) was incubated with 100 nM Alexa Fluor® 647-Poly-GT Peptide Substrate (Life Technologies Cat. No. PV5836) and 15 μM ATP along with test compound in a buffer consisting of 250 mM HEPES, 25 mM MgCl2, 0.05% TritonX-100, pH 7.5, and 2% DMSO. Compounds were typically prepared in a threefold serial dilution in DMSO and added to the assay to give the appropriate final concentration. After a 20 minute incubation at 22° C., an equal volume of 2 nM LanthaScreen® Eu-PY20 Antibody (Life Technologies Cat. No. PV5691) and 10 mM EDTA were added to quench the kinase reaction and start the detection reaction. After an additional 60 minute incubation at 22° C., the reaction was measured using a PerkinElmer EnVision multimode plate reader via TR-FRET dual wavelength detection, and the percent of control (POC) calculated using a ratiometric emission factor. 100 POC was determined using no test compounds and 0 POC was determined using no enzyme. The POC values were fit to a 4-parameter logistic curve as a function of the concentration of the compound, and the IC50 value is the point where the curve crosses 50 POC.

Chain of FGFR3 (P22607 449-759): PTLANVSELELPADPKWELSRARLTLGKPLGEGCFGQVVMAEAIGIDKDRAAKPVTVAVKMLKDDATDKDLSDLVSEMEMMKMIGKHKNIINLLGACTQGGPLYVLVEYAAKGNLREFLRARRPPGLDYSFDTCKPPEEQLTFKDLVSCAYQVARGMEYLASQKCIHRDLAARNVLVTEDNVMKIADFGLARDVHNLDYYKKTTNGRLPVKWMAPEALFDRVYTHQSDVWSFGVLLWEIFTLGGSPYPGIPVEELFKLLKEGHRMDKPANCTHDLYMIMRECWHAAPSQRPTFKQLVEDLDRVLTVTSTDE

Question: Which “FGFR3 Enz kobs” value (FGFR3) does the source give for `C=CC(=O)N1CC(C(=O)N2CCC(n3cc(-c4cnc5ccc(Nc6cc(OC)cc(OC)c6)cc5n4)cn3)CC2)C1` [Example 1, 1-(3-(4-(4-(7-((3,5-dimethoxyphenyl)amino)quinoxalin-2-yl)-1H-pyrazol-1-yl)piperidine-1-carbonyl)azetidin-1-yl)prop-2-en-1-one] here?
Answer: 0.00945 min⁻¹

Question: And the IC50 (human wild type FGFR1)?
Answer: 507 nM

Question: And the IC50 (human wild type FGFR3)?
Answer: 44 nM

Question: What about the IC50 [1] of the same compound?
Answer: 11 nM

Question: `C=CC(=O)N1CC[C@@H](C(=O)N2CCC(n3cc(-c4cnc5ccc(Nc6cc(OC)cc(OC)c6)cc5n4)cn3)CC2)C1` [Example 2, (R)-1-(3-(4-(4-(7-((3,5-dimethoxyphenyl)amino)-quinoxalin-2-yl)-1H-pyrazol-1-yl)piperidine-1-carbonyl)pyrrolidin-1-yl)-prop-2-en-1-one] was tested. Which “FGFR3 Enz kobs” value (FGFR3) did it give?
Answer: 0.00302 min⁻¹

Question: What about the IC50 (human wild type FGFR1) of the same compound?
Answer: 852 nM

Question: And the IC50 (human wild type FGFR3)?
Answer: 207 nM

Question: And the IC50 [1]?
Answer: 11 nM

Question: With `C=CC(=O)N1CCC(C(=O)N2CCC(n3cc(-c4cnc5ccc(Nc6cc(OC)cc(OC)c6)cc5n4)cn3)CC2)CC1` [Example 3, 1-(4-(4-(4-(7-((3,5-dimethoxyphenyl)amino)-quinoxalin-2-yl)-1H-pyrazol-1-yl)piperidine-1-carbonyl)piperidin-1-yl)prop-2-en-1-one] as the compound, how does the “FGFR3 Enz kobs” value (FGFR3) read?
Answer: 0.00166 min⁻¹

Question: And the IC50 (human wild type FGFR1)?
Answer: 350 nM

Question: And the IC50 (human wild type FGFR3)?
Answer: 135 nM

Question: What about the IC50 [1] of the same compound?
Answer: 12 nM

Question: For `C=CC(=O)N1CC(F)(C(=O)N2CCC(n3cc(-c4cnc5ccc(Nc6cc(OC)cc(OC)c6)cc5n4)cn3)CC2)C1` [Example 4, 1-(3-(4-(4-(7-((3,5-dimethoxyphenyl)amino)-quinoxalin-2-yl)-1H-pyrazol-1-yl)piperidine-1-carbonyl)-3-fluoro-azetidin-1-yl)prop-2-en-1-one], which “FGFR3 Enz kobs” value (FGFR3) is on record?
Answer: 0.03901 min⁻¹

Question: What about the IC50 (human wild type FGFR1) of the same compound?
Answer: 170 nM

Question: What about the IC50 (human wild type FGFR3) of the same compound?
Answer: 20 nM

Question: And the IC50 [1]?
Answer: 40 nM

Question: With `C=CC(=O)N1CC(C(=O)N2CCN(c3ccc(-c4cnc5ccc(Nc6cc(OC)cc(OC)c6)cc5n4)cn3)CC2)C1` [Example 5, 1-(3-(4-(5-(7-((3,5-dimethoxyphenyl)amino)-quinoxalin-2-yl)pyridin-2-yl)piperazine-1-carbonyl)azetidin-1-yl)-prop-2-en-1-one] as the compound, how does the “FGFR3 Enz kobs” value (FGFR3) read?
Answer: 0.01486 min⁻¹

Question: What about the IC50 (human wild type FGFR1) of the same compound?
Answer: 2690 nM

Question: What about the IC50 (human wild type FGFR3) of the same compound?
Answer: 317 nM

Question: And the IC50 [1]?
Answer: 365 nM

Question: How did the “FGFR3 Enz kobs” value (FGFR3) turn out when `COc1cc(Nc2ccc3ncc(-c4ccc(N5CCN(C(=O)C6CN(C(=O)/C=C/CN(C)C)C6)CC5)nc4)nc3c2)cc(OC)c1` [Example 6, (E)-1-(3-(4-(5-(7-((3,5-dimethoxyphenyl)amino)-quinoxalin-2-yl)pyridin-2-yl)piperazine-1-carbonyl)azetidin-1-yl)-4-(dimethylamino)but-2-en-1-one] was run?
Answer: 0.04816 min⁻¹

Question: And the IC50 (human wild type FGFR1)?
Answer: ≥ 5000 nM

Question: And the IC50 (human wild type FGFR3)?
Answer: 228 nM

Question: What about the IC50 [1] of the same compound?
Answer: 124 nM

Question: What does the source list for `COc1cc(Nc2ccc3ncc(-c4ccc(N5CCN(C(=O)C6(F)CN(C(=O)/C=C/CN(C)C)C6)CC5)nc4)nc3c2)cc(OC)c1` [Example 7, (E)-1-(3-(4-(5-(7-((3,5-dimethoxyphenyl)amino)-quinoxalin-2-yl)pyridin-2-yl)piperazine-1-carbonyl)-3-fluoroazetidin-1-yl)-4-(dimethylamino)but-2-en-1-one]?
Answer: FGFR3 Enz kobs (FGFR3): 0.1309 min⁻¹; IC50 (human wild type FGFR1): 1530 nM; IC50 (human wild type FGFR3): 77 nM; IC50 [1]: 227 nM

Question: With `C=CC(=O)N1CC(F)(C(=O)N2CCN(c3ccc(-c4cnc5ccc(Nc6cc(OC)cc(OC)c6)cc5n4)cn3)CC2)C1` [Example 8, 1-(3-(4-(5-(7-((3,5-dimethoxyphenyl)amino)-quinoxalin-2-yl)pyridin-2-yl)piperazine-1-carbonyl)-3-fluoroazetidin-1-yl)-prop-2-en-1-one] as the compound, how does the “FGFR3 Enz kobs” value (FGFR3) read?
Answer: 0.06319 min⁻¹

Question: And the IC50 (human wild type FGFR1)?
Answer: 1140 nM

Question: What about the IC50 (human wild type FGFR3) of the same compound?
Answer: 154 nM

Question: What about the IC50 [1] of the same compound?
Answer: 744 nM

Question: With `COc1cc(Nc2ccc3ncc(-c4cnn(C5CCN(C(=O)C6CN(C(=O)/C=C/CN(C)C)C6)CC5)c4)nc3c2)cc(OC)c1` [Example 9, (E)-1-(3-(4-(4-(7-((3,5-dimethoxyphenyl)amino)-quinoxalin-2-yl)-1H-pyrazol-1-yl)piperidine-1-carbonyl)azetidin-1-yl)-4-(dimethylamino)but-2-en-1-one] as the compound, how does the “FGFR3 Enz kobs” value (FGFR3) read?
Answer: 0.02139 min⁻¹

Question: What about the IC50 (human wild type FGFR1) of the same compound?
Answer: 2230 nM

Question: And the IC50 (human wild type FGFR3)?
Answer: 184 nM

Question: What about the IC50 [1] of the same compound?
Answer: 10 nM

Question: Which results are given for `COc1cc(Nc2ccc3ncc(-c4cnn(C5CCN(C(=O)C6(F)CN(C(=O)/C=C/CN(C)C)C6)CC5)c4)nc3c2)cc(OC)c1` [Example 10, (E)-1-(3-(4-(4-(7-((3,5-dimethoxyphenyl)amino)-quinoxalin-2-yl)-1H-pyrazol-1-yl)piperidine-1-carbonyl)-3-fluoro-azetidin-1-yl)-4-(dimethylamino)but-2-en-1-one]?
Answer: FGFR3 Enz kobs (FGFR3): 0.09291 min⁻¹; IC50 (human wild type FGFR1): 134 nM; IC50 (human wild type FGFR3): 14 nM; IC50 [1]: 11 nM

Question: For `COc1cc(Nc2ccc3ncc(-c4cnn(C5CCN(C(=O)C6(C#N)CN(C(=O)/C=C/CN(C)C)C6)CC5)c4)nc3c2)cc(OC)c1` [Example 11, (E)-3-(4-(4-(7-((3,5-dimethoxyphenyl)amino)-quinoxalin-2-yl)-1H-pyrazol-1-yl)piperidine-1-carbonyl)-1-(4-(dimethyl-amino)but-2-enoyl)-azetidine-3-carbonitrile], which “FGFR3 Enz kobs” value (FGFR3) is on record?
Answer: 0.1473 min⁻¹

Question: What about the IC50 (human wild type FGFR1) of the same compound?
Answer: 149 nM

Question: And the IC50 (human wild type FGFR3)?
Answer: 19 nM

Question: And the IC50 [1]?
Answer: 15 nM

Question: How did the “FGFR3 Enz kobs” value (FGFR3) turn out when `COc1cc(Nc2ccc3ncc(-c4ccc(N5CCN(C(=O)C6(F)CN(C(=O)/C=C/CN(C)C)C6)CC5)nc4C)nc3c2)cc(OC)c1` [Example 13, (E)-1-(3-(4-(5-(7-((3,5-dimethoxyphenyl)amino)-quinoxalin-2-yl)-6-methylpyridin-2-yl)-piperazine-1-carbonyl)-3-fluoroazetidin-1-yl)-4-(dimethylamino)but-2-en-1-one] was run?
Answer: 0.02606 min⁻¹

Question: And the IC50 [1]?
Answer: 1910 nM

Question: For `C=CC(=O)N1CC(C(=O)N2CCN(c3cccc(-c4cnc5ccc(Nc6cc(OC)cc(OC)c6)cc5n4)c3)CC2)C1` [Example 25, 1-(3-(4-(3-(7-((3,5-dimethoxyphenyl)amino)-quinoxalin-2-yl)phenyl)-piperazine-1-carbonyl)-azetidin-1-yl)prop-2-en-1-one], which “FGFR3 Enz kobs” value (FGFR3) is on record?
Answer: 0.00369 min⁻¹

Question: What about the IC50 [1] of the same compound?
Answer: 1740 nM
